Reference: article PMC11322065, “N-demethylsinomenine metabolite and its prototype sinomenine activate mast cells via MRGPRX2 and aggravate anaphylaxis” (Frontiers in Pharmacology, 2024)
pKd: −log10 of the molar value. Structures can show the parent of a compound that is named as a salt.

Target: T1, MRGPRX2 (Homo sapiens, UniProt Q96LB1)
T1 sequence (Q96LB1 1-330): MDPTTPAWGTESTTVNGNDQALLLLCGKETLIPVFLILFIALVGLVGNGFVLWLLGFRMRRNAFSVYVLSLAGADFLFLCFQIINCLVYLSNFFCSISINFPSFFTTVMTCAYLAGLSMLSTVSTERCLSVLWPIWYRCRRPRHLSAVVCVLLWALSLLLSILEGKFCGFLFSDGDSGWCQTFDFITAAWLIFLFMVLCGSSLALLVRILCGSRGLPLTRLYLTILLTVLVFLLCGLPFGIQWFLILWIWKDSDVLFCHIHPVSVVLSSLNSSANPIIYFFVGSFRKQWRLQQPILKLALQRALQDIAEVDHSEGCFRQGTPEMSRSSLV
Assay: SPR, MRGPRX2 protein immobilised on CM5 chip
Type: binding

Row | SMILES | pKd
1 | COC1=C[C@@H]2[C@@H]3Cc4ccc(OC)c(O)c4[C@]2(CCN3)CC1=O [M-3, N-demethylsinomenine] | 5.12
2 | COC1=C[C@@H]2[C@@H]3Cc4ccc(OC)c(O)c4[C@]2(CCN3C)CC1=O [SH, sinomenine hydrochloride] | 6.17
